According to the NIST ThermoML archive (doi:10.1016/j.jct.2018.12.014):
Numbers after ± are expanded uncertainties.

Tests used:
[1] = 101 kPa, Liquid, Vibrating tube method
[2] = refractive index (Na D-line) (dimensionless); conditions: 101 kPa, Liquid, Standard Abbe refractometry
[3] = refractive index (Na D-line) (dimensionless); wn = mass fraction of the nth substance listed; conditions: 101 kPa, Liquid, Standard Abbe refractometry, w2 = 0
[4] = wn = mass fraction of the nth substance listed; conditions: 101 kPa, Liquid, Vibrating tube method, w2 = 0

Question: For CN(CCO)CCO [N-methyldiethanolamine], which mass density ([1]; 293.15 K) is on record?
Answer: Its mass density is 1040.31 ± 8.4 kg/m3.

Question: What about the mass density ([1]; 298.15 K) of the same compound?
Answer: Its mass density is 1036.42 ± 8.3 kg/m3.

Question: And the mass density ([1]; 303.15 K)?
Answer: The mass density was 1032.55 ± 8.3 kg/m3.

Question: What about the mass density ([1]; 308.15 K) of the same compound?
Answer: The mass density was 1028.7 ± 8.3 kg/m3.

Question: And the mass density ([1]; 313.15 K)?
Answer: The mass density was 1025.14 ± 8.2 kg/m3.

Question: What about the mass density ([1]; 318.15 K) of the same compound?
Answer: The mass density was 1021.34 ± 8.2 kg/m3.

Question: What about the mass density ([1]; 323.15 K) of the same compound?
Answer: Its mass density is 1017.55 ± 8.2 kg/m3.

Question: What about the mass density ([1]; 328.15 K) of the same compound?
Answer: Its mass density is 1013.89 ± 8.2 kg/m3.

Question: And the mass density ([1]; 333.15 K)?
Answer: Its mass density is 1010.07 ± 8.1 kg/m3.

Question: What about the mass density ([1]; 338.15 K) of the same compound?
Answer: Its mass density is 1006.37 ± 8.1 kg/m3.

Question: What about the mass density ([1]; 343.15 K) of the same compound?
Answer: Its mass density is 1002.33 ± 8.1 kg/m3.

Question: What about the mass density ([1]; 348.15 K) of the same compound?
Answer: The mass density was 998.62 ± 8 kg/m3.

Question: What about the mass density ([1]; 353.15 K) of the same compound?
Answer: Its mass density is 995.05 ± 8 kg/m3.

Question: And the refractive index ([2]; 293.15 K)?
Answer: The refractive index was 1.46942 ± 0.0042.

Question: What about the refractive index ([2]; 298.15 K) of the same compound?
Answer: Its refractive index is 1.46732 ± 0.0042.

Question: And the refractive index ([2]; 303.15 K)?
Answer: The refractive index was 1.46498 ± 0.0042.

Question: What about the refractive index ([2]; 308.15 K) of the same compound?
Answer: Its refractive index is 1.46285 ± 0.0042.

Question: What about the refractive index ([2]; 313.15 K) of the same compound?
Answer: The refractive index was 1.46099 ± 0.0042.

Question: What about the refractive index ([2]; 318.15 K) of the same compound?
Answer: Its refractive index is 1.45879 ± 0.0042.

Question: And the refractive index ([2]; 323.15 K)?
Answer: Its refractive index is 1.4568 ± 0.0042.

Question: What about the refractive index ([2]; 328.15 K) of the same compound?
Answer: The refractive index was 1.45461 ± 0.0042.

Question: And the refractive index ([2]; 333.15 K)?
Answer: The refractive index was 1.45252 ± 0.0042.

Question: What about the refractive index ([2]; 338.15 K) of the same compound?
Answer: Its refractive index is 1.45042 ± 0.0042.

Question: What about the refractive index ([2]; 343.15 K) of the same compound?
Answer: Its refractive index is 1.44855 ± 0.0042.

Question: For CN(CCO)CCO [N-methyldiethanolamine] + C[P+](c1ccccc1)(c1ccccc1)c1ccccc1.[Br-], which refractive index ([3]; 293.15 K) is on record?
Answer: Its refractive index is 1.46942 ± 0.0042.

Question: And the refractive index ([3]; 298.15 K)?
Answer: The refractive index was 1.46732 ± 0.0042.

Question: What about the refractive index ([3]; 303.15 K) of the same compound?
Answer: The refractive index was 1.46498 ± 0.0042.

Question: What about the refractive index ([3]; 308.15 K) of the same compound?
Answer: Its refractive index is 1.46285 ± 0.0042.

Question: What about the refractive index ([3]; 313.15 K) of the same compound?
Answer: The refractive index was 1.46099 ± 0.0042.

Question: What about the refractive index ([3]; 318.15 K) of the same compound?
Answer: Its refractive index is 1.45879 ± 0.0042.

Question: And the refractive index ([3]; 323.15 K)?
Answer: The refractive index was 1.4568 ± 0.0042.

Question: And the refractive index ([3]; 328.15 K)?
Answer: Its refractive index is 1.45461 ± 0.0042.

Question: And the refractive index ([3]; 333.15 K)?
Answer: Its refractive index is 1.45252 ± 0.0042.

Question: What about the refractive index ([3]; 338.15 K) of the same compound?
Answer: Its refractive index is 1.45042 ± 0.0042.

Question: What about the refractive index ([3]; 343.15 K) of the same compound?
Answer: Its refractive index is 1.44855 ± 0.0042.

Question: And the mass density ([4]; 293.15 K)?
Answer: The mass density was 1040.31 ± 8.4 kg/m3.

Question: What about the mass density ([4]; 298.15 K) of the same compound?
Answer: Its mass density is 1036.42 ± 8.3 kg/m3.

Question: What about the mass density ([4]; 303.15 K) of the same compound?
Answer: The mass density was 1032.55 ± 8.3 kg/m3.

Question: And the mass density ([4]; 308.15 K)?
Answer: The mass density was 1028.7 ± 8.3 kg/m3.

Question: What about the mass density ([4]; 313.15 K) of the same compound?
Answer: Its mass density is 1025.14 ± 8.2 kg/m3.

Question: And the mass density ([4]; 318.15 K)?
Answer: Its mass density is 1021.34 ± 8.2 kg/m3.

Question: And the mass density ([4]; 323.15 K)?
Answer: Its mass density is 1017.55 ± 8.2 kg/m3.

Question: What about the mass density ([4]; 328.15 K) of the same compound?
Answer: Its mass density is 1013.89 ± 8.2 kg/m3.

Question: What about the mass density ([4]; 333.15 K) of the same compound?
Answer: Its mass density is 1010.07 ± 8.1 kg/m3.

Question: And the mass density ([4]; 338.15 K)?
Answer: The mass density was 1006.37 ± 8.1 kg/m3.

Question: What about the mass density ([4]; 343.15 K) of the same compound?
Answer: The mass density was 1002.33 ± 8.1 kg/m3.

Question: And the mass density ([4]; 348.15 K)?
Answer: The mass density was 998.62 ± 8 kg/m3.

Question: And the mass density ([4]; 353.15 K)?
Answer: Its mass density is 995.05 ± 8 kg/m3.
